Series [1] deals with human muscle cells. As to the kind of experiment: Toxicity of commercial statins on human muscle cells. To be noted: 0-1 μM; FIG. 4; total culture time 5 days. The class given is cell-based. How it is done:
These experiments were reproduced with human muscle cells in order to test the toxicity of the commercial statins.
The experimentation procedure is as follows.
On day 1 the media are changed. On day 3 staining is carried out.
The total culture time is 5 days.
After aspiration of the culture medium, the cells are washed with PBS then fixed with 100% ethanol. 10 minutes later the cells are washed with water then stained with a solution of 10% Giemsa for 10 minutes. The final step is washing with water.
Images of the cells are obtained with an inverted microscope (Nikon) equipped with a digital camera and a motorized stage.

For series [2] the following is noted: compared with other statins; cited from earlier work.
The subject of series [3] is human muscle cells. As to the kind of experiment: Effect of Hepes buffer on long-term growth of human muscle cells. The class given is cell-based. To be noted: 15 mM in culture medium.
The next series deals with rat adipocyte cells. Briefly: Cell test predictive of muscle toxicity, rat adipocyte cells. The conditions noted are these: 0.5 μM; 2 days culture.

With `COCc1c(C(C)C)nc(C(C)C)c(/C=C/[C@@H](O)C[C@@H](O)CC(=O)O)c1-c1ccc(F)cc1` [Cerivastatin], the “toxicity on human muscle cells” value in the series on human muscle cells [1] is given as “high toxicity”. In series [2], the “toxicity in human clinical use” value is reported as “most toxic statin”.
With `O=S(=O)(O)CCN1CCN(CCO)CC1` [Hepes], the “growth of human muscle cells in the long term” value with human muscle cells [3] is given as “inhibits the growth”.
Consider `CC[C@H](C)C(=O)O[C@H]1C[C@@H](C)C=C2C=C[C@H](C)[C@H](CC[C@@H]3C[C@@H](O)CC(=O)O3)[C@H]21` [Lovastatin], for which, in the series with rat adipocyte cells, the “sensitivity of adipocyte cells” value is reported as “insensitive”.
